Values after ≈ are worked out from the molar mass of the structure shown.
Assays:
Assay type in all cases: cell-based, Mycobacterium tuberculosis
M. tuberculosis H37Rv = test: DST of MTB using the DAC system (MIC from time-lapse images); conditions: for MIC: Mycobacterium tuberculosis, 120 h, images over 5 days; for susceptibility of the strain (in words): from the MIC data
MDR-TB clinical strain = test: as above; conditions: for susceptibility determined from the MIC data and the critical concentrations: DAC system, MDR strain; for MIC: Mycobacterium tuberculosis, 120 h
XDR-TB clinical strain = test: as above; conditions: for susceptibility determined from the MIC data and the critical concentrations: DAC system, XDR strain; for MIC: Mycobacterium tuberculosis, 120 h
standard strain H37Rv = test: Inoculum effect test, DST on the DAC system
clinical strain 1088 = test: Inoculum effect on clinical strains on the DAC system
Description: (§1) Mycobacterium tuberculosis identified by ZN staining and grown from an L-J slope or MGIT tube and was subjected to DST. For the preparation of inoculation from the LJ culture, colonies up to 14 days were extracted from the grown culture. The colonies were shaken with glass beads to crush large lumps. To obtain a high density (˜5×10^9 CFU/ml), the suspension was centrifuged at 3000 g for 10 min and pellets were resuspended in sterile PBS. Subsequently, the suspension was added to liquid agarose, inoculated in a bacteria-agarose mixture within the range of 10^1 to 5×10^8 CFU/ml, and loaded in the main channel After solidification, 7H9 broth containing each antibiotic was applied to the chamber. All bacterial cells were imaged with an inverted optical microscope (IS71, Olympus).
(§2) Clinical strains express various phenotypes, particularly, in drug susceptibility. […] Rifampicin, isoniazid, streptomycin, and ethambutol were used as test drugs. For the 131 strains, the highest concentration was 1.3×10^9.

clinical strain 131 = test: as above
Description: as §1, §2

clinical strain CMS = test: as above
Description: as §1, §2

clinical strain CYD = test: as above
Description: as §1, §2

clinical strain KHS = test: as above
Description: as §1, §2

clinical strain MSH = test: as above
Description: as §1, §2

[1] = inoculum 10^3/mL, DAC, unit inferred
[2] = inoculum 10^4/mL, DAC, unit inferred
[3] = inoculum 10^5/mL, DAC, unit inferred
[4] = inoculum 10^6/mL, MAC2, unit inferred
[5] = inoculum 10^7/mL, MAC2, unit inferred

Row | Compound | susceptibility determined from the MIC data and the critical concentrations (M. tuberculosis H37Rv) | MIC (M. tuberculosis H37Rv) | susceptibility determined from the MIC data and the critical concentrations (MDR-TB clinical strain) | MIC (MDR-TB clinical strain) | susceptibility determined from the MIC data and the critical concentrations (XDR-TB clinical strain) | MIC (XDR-TB clinical strain) | MIC (DAC) (standard strain H37Rv; [1]) | MIC (DAC) (standard strain H37Rv; [2]) | MIC (DAC) (standard strain H37Rv; [3]) | MIC (DAC) (standard strain H37Rv; [4]) | MIC (DAC) (standard strain H37Rv; [5]) | MIC (DAC) (clinical strain 1088; [1]) | MIC (DAC) (clinical strain 1088; [2]) | MIC (DAC) (clinical strain 1088; [3]) | MIC (DAC) (clinical strain 1088; [4]) | MIC (DAC) (clinical strain 1088; [5]) | MIC (DAC) (clinical strain 131; [1]) | MIC (DAC) (clinical strain 131; [2]) | MIC (DAC) (clinical strain 131; [3]) | MIC (DAC) (clinical strain 131; [4]) | also measured
1 | NNC(=O)c1ccncc1 [INH, isoniazid] | S | 0.05 µg/mL (≈ 0.365 µM) | R | > 0.2 µg/mL | R | > 0.2 µg/mL | 0.05 µg/mL (≈ 0.365 µM) | 0.05 µg/mL (≈ 0.365 µM) | 0.05 µg/mL (≈ 0.365 µM) | 0.05 µg/mL (≈ 0.365 µM) | 0.05 µg/mL (≈ 0.365 µM) | ≥ 0.2 µg/mL | 0.2 µg/mL (≈ 1.46 µM) | 0.2 µg/mL (≈ 1.46 µM) | ≥ 0.2 µg/mL | ≥ 0.2 µg/mL | 0.2 µg/mL (≈ 1.46 µM) | > 0.2 µg/mL | > 0.2 µg/mL | > 0.2 µg/mL | susceptibility of the strain (in words) (M. tuberculosis H37Rv): sensitive; MIC (DAC) (clinical strain 131; [5]): > 0.2 µg/mL; MIC (DAC) (clinical strain CMS; [2]): 0.05 µg/mL (≈ 0.365 µM); MIC (DAC) (clinical strain CMS; [3]): 0.025 µg/mL (≈ 0.182 µM); MIC (DAC) (clinical strain CMS; [4]): 0.025 µg/mL (≈ 0.182 µM); MIC (DAC) (clinical strain CMS; [5]): 0.05 µg/mL (≈ 0.365 µM); MIC (DAC) (clinical strain CYD; [2]): 0.05 µg/mL (≈ 0.365 µM); MIC (DAC) (clinical strain CYD; [3]): 0.025 µg/mL (≈ 0.182 µM); MIC (DAC) (clinical strain CYD; [4]): 0.025 µg/mL (≈ 0.182 µM); MIC (DAC) (clinical strain CYD; [5]): 0.025 µg/mL (≈ 0.182 µM); MIC (DAC) (clinical strain KHS; [2]): 0.05 µg/mL (≈ 0.365 µM); MIC (DAC) (clinical strain KHS; [3]): 0.025 µg/mL (≈ 0.182 µM); MIC (DAC) (clinical strain KHS; [4]): 0.025 µg/mL (≈ 0.182 µM); MIC (DAC) (clinical strain KHS; [5]): 0.025 µg/mL (≈ 0.182 µM); MIC (DAC) (clinical strain MSH; [2]): 0.025 µg/mL (≈ 0.182 µM); MIC (DAC) (clinical strain MSH; [3]): 0.025 µg/mL (≈ 0.182 µM); MIC (DAC) (clinical strain MSH; [4]): 0.025 µg/mL (≈ 0.182 µM); MIC (DAC) (clinical strain MSH; [5]): 0.025 µg/mL (≈ 0.182 µM)
2 | CO[C@H]1/C=C/O[C@@]2(C)Oc3c(C)c(O)c4c(O)c(c(/C=N/N5CCN(C)CC5)c(O)c4c3C2=O)NC(=O)/C(C)=C\C=C\[C@H](C)[C@H](O)[C@@H](C)[C@@H](O)[C@@H](C)[C@H](OC(C)=O)[C@@H]1C [RFP, rifampicin] | S | 0.25 µg/mL (≈ 0.304 µM) | R | > 2 µg/mL | R | > 2 µg/mL | 0.5 µg/mL (≈ 0.608 µM) | 0.5 µg/mL (≈ 0.608 µM) | 0.5 µg/mL (≈ 0.608 µM) | 0.5 µg/mL (≈ 0.608 µM) | 0.5 µg/mL (≈ 0.608 µM) | ≥ 2 µg/mL | ≥ 2 µg/mL | ≥ 2 µg/mL | ≥ 2 µg/mL | ≥ 2 µg/mL | > 2 µg/mL | > 2 µg/mL | > 2 µg/mL | > 2 µg/mL | MIC (DAC) (clinical strain 131; [5]): > 2 µg/mL; MIC (DAC) (clinical strain CMS; [2]): 0.25 µg/mL (≈ 0.304 µM); MIC (DAC) (clinical strain CMS; [3]): 0.25 µg/mL (≈ 0.304 µM); MIC (DAC) (clinical strain CMS; [4]): 0.5 µg/mL (≈ 0.608 µM); MIC (DAC) (clinical strain CMS; [5]): 0.5 µg/mL (≈ 0.608 µM); MIC (DAC) (clinical strain CYD; [2]): 0.25 µg/mL (≈ 0.304 µM); MIC (DAC) (clinical strain CYD; [3]): 0.25 µg/mL (≈ 0.304 µM); MIC (DAC) (clinical strain CYD; [4]): 0.25 µg/mL (≈ 0.304 µM); MIC (DAC) (clinical strain CYD; [5]): 0.5 µg/mL (≈ 0.608 µM); MIC (DAC) (clinical strain KHS; [2]): 0.25 µg/mL (≈ 0.304 µM); MIC (DAC) (clinical strain KHS; [3]): 0.25 µg/mL (≈ 0.304 µM); MIC (DAC) (clinical strain KHS; [4]): 0.25 µg/mL (≈ 0.304 µM); MIC (DAC) (clinical strain KHS; [5]): 0.5 µg/mL (≈ 0.608 µM); MIC (DAC) (clinical strain MSH; [2]): 0.25 µg/mL (≈ 0.304 µM); MIC (DAC) (clinical strain MSH; [3]): 0.25 µg/mL (≈ 0.304 µM); MIC (DAC) (clinical strain MSH; [4]): 0.25 µg/mL (≈ 0.304 µM); MIC (DAC) (clinical strain MSH; [5]): 0.5 µg/mL (≈ 0.608 µM)
3 | [H]/N=C(/N)N[C@H]1[C@H](O)[C@@H](O)[C@H](O[C@@H]2O[C@@H](C)[C@](O)(C=O)[C@H]2O[C@@H]2O[C@@H](CO)[C@H](O)[C@@H](O)[C@@H]2NC)[C@@H](N/C(N)=N\[H])[C@@H]1O [SM, streptomycin] | R | 2 µg/mL (≈ 3.44 µM) | R | > 4 µg/mL | R | > 4 µg/mL | 2 µg/mL (≈ 3.44 µM) | 2 µg/mL (≈ 3.44 µM) | 2 µg/mL (≈ 3.44 µM) | 2 µg/mL (≈ 3.44 µM) | > 2 µg/mL | ≥ 4 µg/mL | ≥ 4 µg/mL | ≥ 4 µg/mL | ≥ 4 µg/mL | ≥ 4 µg/mL | > 4 µg/mL | > 4 µg/mL | > 4 µg/mL | > 4 µg/mL | susceptibility of the strain (in words) (M. tuberculosis H37Rv): sensitive; MIC (DAC) (clinical strain 131; [5]): > 4 µg/mL; MIC (DAC) (clinical strain CMS; [2]): 0.5 µg/mL (≈ 0.86 µM); MIC (DAC) (clinical strain CMS; [3]): 0.5 µg/mL (≈ 0.86 µM); MIC (DAC) (clinical strain CMS; [4]): 1 µg/mL (≈ 1.72 µM); MIC (DAC) (clinical strain CMS; [5]): 1 µg/mL (≈ 1.72 µM); MIC (DAC) (clinical strain CYD; [2]): 0.5 µg/mL (≈ 0.86 µM); MIC (DAC) (clinical strain CYD; [3]): 0.25 µg/mL (≈ 0.43 µM); MIC (DAC) (clinical strain CYD; [4]): 0.5 µg/mL (≈ 0.86 µM); MIC (DAC) (clinical strain CYD; [5]): 1 µg/mL (≈ 1.72 µM); MIC (DAC) (clinical strain KHS; [2]): 0.5 µg/mL (≈ 0.86 µM); MIC (DAC) (clinical strain KHS; [3]): 0.25 µg/mL (≈ 0.43 µM); MIC (DAC) (clinical strain KHS; [4]): 0.5 µg/mL (≈ 0.86 µM); MIC (DAC) (clinical strain KHS; [5]): 1 µg/mL (≈ 1.72 µM); MIC (DAC) (clinical strain MSH; [2]): 0.25 µg/mL (≈ 0.43 µM); MIC (DAC) (clinical strain MSH; [3]): 0.25 µg/mL (≈ 0.43 µM); MIC (DAC) (clinical strain MSH; [4]): 1 µg/mL (≈ 1.72 µM); MIC (DAC) (clinical strain MSH; [5]): 0.5 µg/mL (≈ 0.86 µM)
4 | CC[C@@H](CO)NCCN[C@@H](CC)CO [EMB, ethambutol] | S | 5 µg/mL (≈ 24.5 µM) | R | > 10 µg/mL | R | 10 µg/mL (≈ 48.9 µM) | 2.5 µg/mL (≈ 12.2 µM) | 1.25 µg/mL (≈ 6.12 µM) | 1.25 µg/mL (≈ 6.12 µM) | 2.5 µg/mL (≈ 12.2 µM) | 2.5 µg/mL (≈ 12.2 µM) | 10 µg/mL (≈ 48.9 µM) | 10 µg/mL (≈ 48.9 µM) | 10 µg/mL (≈ 48.9 µM) | ≥ 10 µg/mL | ≥ 10 µg/mL | > 10 µg/mL | > 10 µg/mL | > 10 µg/mL | > 10 µg/mL | susceptibility of the strain (in words) (M. tuberculosis H37Rv): sensitive; MIC (DAC) (clinical strain 131; [5]): > 10 µg/mL; MIC (DAC) (clinical strain CMS; [2]): 1.25 µg/mL (≈ 6.12 µM); MIC (DAC) (clinical strain CMS; [3]): 1.25 µg/mL (≈ 6.12 µM); MIC (DAC) (clinical strain CMS; [4]): 2.5 µg/mL (≈ 12.2 µM); MIC (DAC) (clinical strain CMS; [5]): 2.5 µg/mL (≈ 12.2 µM); MIC (DAC) (clinical strain CYD; [2]): 2.5 µg/mL (≈ 12.2 µM); MIC (DAC) (clinical strain CYD; [3]): 2.5 µg/mL (≈ 12.2 µM); MIC (DAC) (clinical strain CYD; [4]): 2.5 µg/mL (≈ 12.2 µM); MIC (DAC) (clinical strain CYD; [5]): 5 µg/mL (≈ 24.5 µM); MIC (DAC) (clinical strain KHS; [2]): 2.5 µg/mL (≈ 12.2 µM); MIC (DAC) (clinical strain KHS; [3]): 1.25 µg/mL (≈ 6.12 µM); MIC (DAC) (clinical strain KHS; [4]): 2.5 µg/mL (≈ 12.2 µM); MIC (DAC) (clinical strain KHS; [5]): 2.5 µg/mL (≈ 12.2 µM); MIC (DAC) (clinical strain MSH; [2]): 1.25 µg/mL (≈ 6.12 µM); MIC (DAC) (clinical strain MSH; [3]): 2.5 µg/mL (≈ 12.2 µM); MIC (DAC) (clinical strain MSH; [4]): 2.5 µg/mL (≈ 12.2 µM); MIC (DAC) (clinical strain MSH; [5]): 1.25 µg/mL (≈ 6.12 µM)

Source: patent US10533207B2, “Bioactivity testing structure for single cell tracking using gelling agents” (QuantaMatrix Inc., priority 2014, dated 2020)
